Data published in patent US10370391B2, “Hydrogen peroxide-activable, anti-oxidant compounds and methods using same” (Beth Israel Deaconess Medical Center, Inc., priority 2014, dated 2019).

Key:
iNOS = iNOS level in LPS-stimulated macrophage cells; type: cell-based, mouse
Experimental: (§1) FIG. 4, comprising FIGS. 4A-4F, is a set of graphs, bar graphs and images illustrating anti-oxidant and anti-inflammatory effects of BRAP in vitro. […] The generation of ROS was monitored by flow cytometry as an indicator of DCF fluorescence. Fluorescence was analyzed in 10,000 cells with excitation at 480 nm and emission at 530 nm. FIG. 4C: Protective effect of BRAP on H2O2— stimulated adult rat cardiomyocytes. V=vehicle, *<0.05 vs. V+H2O2 (n=4). […] (n=4/group).
(§2) The anti-inflammatory effects of BRAP on LPS-stimulated cells were investigated by measuring the level of inflammatory cytokines such as TNF-α (tumor necrosis factor-alpha) and iNOS (inducible nitric oxide synthases) (FIGS. 4E-4F). […] These observations indicate that BRAP, as well as BRAP-encapsulated PLGA microparticles, is able to scavenge overproduced H2O2 and serve as a H2O2-activable anti-oxidant. Further, the enhanced anti-oxidant activity of BRAP is derived from the combined effects of H2O2-scavenging boronic esters and HBA generation after H2O2-mediated boronate oxidation.

[1] = H2O2 scavenging by peroxalate chemiluminescence (diphenyl oxalate, rubrene); conditions: H2O2 solution 10 μM; HBA alone 10 μM
Experimental: FIG. 21 is a bar graph illustrating H2O2-scavenging by BRAP-encapsulated PLGA microparticles. BRAP-encapsulated PLGA microparticles were incubated in H2O2 solution (10 μM) for 10 minutes, and the level of H2O2 was determined by peroxalate chemiluminesce using rubrene (1 mg) and diphenylperoxalate (10 mg).
Without wishing to be limited by any theory, BRAP could scavenge H2O2 during its H2O2-mediated boronate oxidation. This possibility was investigated using peroxalate chemiluminescence. Peroxalate chemiluminescence has been used as a versatile tool for the detection of a variety of chemical species including fluorescent molecules and H2O2 because of its excellent specificity and simplicity (Hadd, et al., 1999, J. Chem. Educ. 76:1237; Lee, et al., 2011, Bull. Korean Chem. Soc. 32:2187). […] A majority of H2O2 was scavenged by the same concentration of BRAP within 1 minutes.
The ability of the boronate compound to scavenge H2O2 was evaluated by measuring the chemiluminescence intensity after the reaction with diphenyl oxalate solution including rubrene. The boronate (1 μM, or 10 μM) was added in the H2O2 solution (10 μM). After 1 min reaction with H2O2, diphenyl oxalate solution was added to the H2O2 solution, and the chemiluminescence intensity was measured by using a luminometer (Femtomaster FB 12, Zylux Corporation, TN, US; FIG. 13).
The ability of BRAP to scavenge H2O2 was evaluated by measuring the chemiluminescence intensity after the reaction with diphenyl oxalate solution including rubrene. BRAP (1 μM, 5 μM, 10 μM, 20 μM) was added in the H2O2 solution (10 μM). After 1, 5 or 10 min reaction with H2O2, diphenyl oxalate solution was added to the H2O2 solution, and the chemiluminescence intensity was measured by using a luminometer (Femtomaster FB 12, Zylux Corporation, TN, US).

[2] = tested on: mouse macrophage (RAW 264.7) cells stimulated by LPS; assay: Intracellular ROS generation in LPS-stimulated macrophages (DCFH-DA, flow cytometry); type: cell-based; conditions: HBA 0.5 mM; LPS 1 μg/mL
Experimental: as §1
The anti-oxidant activities of BRAP were examined using mouse macrophage (RAW 264.7) and fibroblast (NIH/3T3) cells stimulated by LPS (lipopolysaccharide) (FIGS. 4A-4B). Intracellular ROS production in the stimulated cells was analyzed by flow cytometry using DCFH-DA ([…]-diacetate), which can be oxidized by the action of various intracellular oxidants such as H2O2 and hydroxyl radical to become fluorescent […] (DCF) (Kim, et al., 2011, Biomat. 32:3021; Cho, et al., 2012, Adv. Funct. Mat. 22:4038). Untreated cells have no significant DCF fluorescence.

hepatic I/R injury = assay: Mouse model of hepatic I/R injury; type: in vivo; conditions: ip at reperfusion
Experimental: FIG. 5, comprising FIGS. 5A-5D, is a set of images and bar graphs illustrating beneficial effects of BRAP in hepatic I/R (1 hour ischemia/12 hour reperfusion) injury. FIG. 5A: Hematoxylin and eosin (H/E) staining, DHE staining, and TUNEL staining of mouse liver after injection with HBA or BRAP. FIGS. 5B-5D: Quantitative analysis of serum ALT levels (FIG. 5B), cleaved caspase-3 protein expression (FIG. 5C), and TNF-α protein expression (FIG. 5D) after I/R injury. *p<0.01 relative to Veh I/R. †p<0.05 relative to HBA I/R (n=3˜4/group). Actin protein expression was used as an internal control for protein loading.
Experiments to evaluate whether BRAP reduces ROS generation and inhibits apoptosis were performed in a mouse model of […] I/R injuries. I/R was induced first by 1 hour of ligation of hepatic artery and portal vein followed by reperfusion of hepatic artery. BRAP or HBA was then administrated intraperitoneally (ip) at the time of reperfusion.
Hepatic I/R surgery was performed in 12 week-old male mice. Briefly, mice were anaesthetized, and midline incision was performed for laparotomy. After identifying the portal triad and biliary tree, the main trunk of hepatic artery and portal vein were clamped with vascular clip except for the vasculatures to the right lower lobe to achieve ischemic injury to approximately 70% of the liver. After 1 hour of ischemia, reperfusion was achieved by releasing the vascular clip. No vascular clamp was done for the sham group of mice.
For liver apoptosis assay, terminal deoxynucleotidyl transferase dUTP nick end labeling (TUNEL) staining was performed using a DeadEnd™ Fluorometric TUNEL kit (Promega, Madison, Wis.). Tissue sections were stained for nuclei (4′,6-diamidino-2-phenylindole (DAPI) staining) and apoptotic nuclei (TUNEL staining) and analyzed using a confocal laser scanning microscope. For heart tissues, TUNEL staining was performed using in situ cell death detection Kit, fluorescein (Roche Applied Science, Indianapolis, Ind.). To distinguish cardiomyocyte from non-cardiomyocyte nuclei, triple stain for nuclei (DAPI staining), apoptotic nuclei (TUNEL staining), and cardiomyocytes (α-Actinin staining) was used, and the stained sections were analyzed using confocal microscopy. A minimum of ˜10 high power fields with ˜2000 nuclei/field were counted for each sample.
Heart tissues were collected for molecular analyses were performed in Bae, et al., 2010, Am J Physiol Heart Circ Physiol 299:H1374. For RT-PCR ribosomal 18S primers acted as internal controls and all RT-PCR signals were normalized to the 18S signal of the corresponding RT products. For Western blot analysis, the protein content was measured using BCA assay. Actin protein expression was used as an internal control for protein loading.
The optimal cutting temperature (OCT)-embedded tissues were fixed in 4% paraformaldehyde. Tissue sections were incubated with 5 μM dihydroethidium (DHE, Sigma-Aldrich) at 37° C. for 30 min in a humidified chamber protected from light. Then, 4′,6-diamidino-2-phenylindole (DAPI) was applied. Images were acquired by confocal fluorescence microscope.

TNF-α = TNF-α level in LPS-stimulated macrophage cells; type: cell-based, mouse
Experimental: as §1, §2

[3] = tested on: nitric oxide production in LPS-treated cells; assay: Nitric oxide generation in LPS-treated cells (Griess reaction); type: cell-based; conditions: HBA alone
Experimental: as §1
Nitric oxide is one of major sources of oxidative stress and a well-known pro-inflammatory mediator in the pathogenesis of inflammation (Lundberg, et al., 1997, Nature Medicine 3:30). The effects of BRAP on the generation of nitric oxide in LPS-treated cells were studied using a colorimetric assay based on the Griess reaction.

Q: Which results are given for OCc1ccc(O)cc1 [HBA, 4-hydroxybenzyl alcohol, reference compound]?
A: iNOS level (iNOS): failed to reduce iNOS level; chemiluminescence intensity (H2O2 scavenging) [1]: did not reduce chemiluminescence intensity; inhibition of LPS-induced ROS generation [2]: moderate inhibitory effects; ROS generation (DHE staining) in liver (hepatic I/R injury): suppressed; protection from I/R-induced liver damage (serum ALT) (hepatic I/R injury): much less potent protective effect; hepatic damages (histology, H/E) (hepatic I/R injury; 1 hour ischemia/12 hour reperfusion, same dose of HBA and BRAP): minimal therapeutic effects; TNF-α protein expression (hepatic I/R injury; same dose of HBA and BRAP): minimal inhibitory effects; cleaved caspase-3 protein expression (hepatic I/R injury; same dose of HBA and BRAP): minimal inhibitory effects; hepatic apoptosis (TUNEL) (hepatic I/R injury; same dose of HBA and BRAP): modest inhibitory effects; TNF-α level (TNF-α): reduced the expression of TNF-α but only at a higher dose than BRAP; concentration at which nitric oxide production was inhibited [3]: higher than 0.5 mM
